Reference: PMC6979384, “Characterization of the plant homeodomain (PHD) reader family for their histone tail interactions” (Epigenetics & Chromatin, 2020)
Entries after “also recorded” stand apart in the source; their conditions may differ.

Tests used:
CHD5 (PPCC) = assay: dCypher AlphaScreen Phase B (full peptide screen); assay type: binding, human; details: reader 5.2 nM, 100 nM peptide, 23 °C, n = 2
Method: (§1) X-axes are log(protein concentration (M)) at constant peptide concentration (100 nM); Y-axes are AlphaScreen counts, representing relative strength of binding (n = 2; error bars are S.D.). i Heat map represents relative binding to H3 N-terminal peptides (left) by PHD-containing GST-tagged proteins (top) using the dCypher AlphaScreen platform. Protein concentrations can be found in Additional file 5: Table S4. Binding strength is indicated by color gradient from green to yellow (stronger to weaker). […] Alpha counts (n = 2) were normalized individually for each protein to the highest signal for each respective assay. For full dCypher peptide screen data, see Additional file 4: Table S3
(§2) Once the optimal protein concentration ranges for each of the eight readers were determined, we conducted the full dCypher peptide screen (293 histone peptides) (Fig. 3i; Additional file 4: Table S3).
(§3) The dCypher peptide screen assay was performed as previously described. Briefly, 5 μL of GST-tagged reader domains (optimal protein concentration for library screening determined by initial binding curves to candidate peptides) were incubated with 5 μL of 400 nM (100 nM Final) biotinylated histone peptides (EpiCypher) for 30 min at 23 °C in 1× AlphaLISA Epigenetics buffer + epigenetics buffer supplement (PerkinElmer, AL1008) in a 384-well plate. A 10 μL mix of 5 µg/mL (2.5 μg/mL final) glutathione Acceptor beads (PerkinElmer, AL109M) and 10 μg/mL (5 μg/mL final) streptavidin Donor beads (PerkinElmer, 6760002) was prepared in 1× [Epigenetics buffer + supplement] and added to each well. Plates were incubated at 23 °C in subdued lighting for 60 min and AlphaLISA signal measured on a PerkinElmer 2104 EnVision (680 nm laser excitation, 570 nm emission filter ± 50 nm bandwidth).
(§4) Supplementary file 13072_2020_328_MOESM4_ESM.xlsx: Additional file 4: Table S3. dCypher Results. Excel Tab Peptide Phase A is a compiled set of binding data: chromatin reader titration vs. several peptide targets. Data is presented as raw Alpha counts in duplicates at each concentration tested. Excel Tab Peptide Phase B is a compiled set of binding data: chromatin reader at optimized concentrations vs. entire 293 peptide library. Data is presented as the average and standard deviation of duplicates. […] Key: red = strong binding; blue = weak/no binding.

TRIM66 (PB) [1] = assay: dCypher AlphaScreen Phase B (full peptide screen); assay type: binding, human; details: reader 7 nM, 100 nM peptide, 23 °C
Method: as §1, §2, §3, §4

[2] = test system: 123 annotated human PHD-containing domains; assay: PHD finger domain microarray probed with biotinylated peptides (all domains); assay type: binding; details: for number of H3-interacting domains with preference for this state: out of 31 H3-binding domains; for binding on domain microarray: GST-PHD readers in duplicate on nitrocellulose slides, biotinylated peptide pre-labeled with streptavidin-Cy3
Text: To define the histone binding preferences of the PHD finger proteome, we expressed and purified 123 annotated human PHD-containing domains as GST-tagged recombinant fusions from E. coli. The recombinant proteins consisted of either PHD fingers in isolation, or as tandem domains if a given PHD finger was located adjacent to another reader domain (e.g., one or more PHD fingers, Tudor, chromo and/or bromodomains) (Additional file 1: Table S1). These GST fusions were printed in duplicate on nitrocellulose-coated microarray slides and probed with biotinylated peptides that represented the N-termini of H3, H4, H2A or H2B (Fig. 1a and Additional file 2: Figure S1). As the majority of PHD readers thus far characterized are H3K4me0/3 readers, we included additional peptides (H3K4 as either mono-, di-, or trimethylated) to further determine any H3K4 methyl preference (Additional file 2: Figure S2 and Fig. 1b). As a control, we also probed these microarrays with an α-Tubulin peptide (a.a. 30–50) that would not be predicted to interact with PHD fingers (Additional file 2: Figure S1). […] We also cannot exclude the possibility that some PHD fingers might not be functionally active on the microarrays (perhaps due to misfolding or the lack of an important adjacent region).
The protein domain microarray was designed to include 123 GST-tagged PHD-domain containing recombinant proteins. Protein domain microarray development and probing was as previously. Briefly, recombinant proteins were synthesized and cloned into pGEX-4T-1 vector by Biomatik Corporation. These GST-PHD readers were subsequently expressed, purified, and spotted in duplicate onto nitrocellulose-coated glass slides (Oncyte Avid slides, Grace Bio-Labs) using a pin arrayer (Aushon 2470, Aushon). For probing, microarray slides were blocked with 3% milk, 3% bovine serum albumin, 0.1% Tween 20 in PBS. Biotinylated peptides were pre-labeled with streptavidin-Cy3 fluorophore (GE Healthcare) and incubated with the blocked array slides. Slides were then washed with PBST and allowed to air dry. Fluorescent interactions were visualized using a GenePix 4200A Microarray Scanner (Molecular Devices).

KDM5A (3) = assay: Histone peptide microarray; assay type: binding, human; details: GST-tagged KDM5A (3), sheet Array Heatmap, each array performed twice, total n = 4
Procedure, shortened: (§5)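 Each reader, produced as a GST fusion and purified, was tested at 0.5 μM on synthetic histone peptides (293 in total) carrying single or combinatorial marks. Intensities averaged over four replicates.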

KDM7A = assay: Histone peptide microarray; assay type: binding, human; details: GST-tagged KDM7A, sheet Array Heatmap, each array performed twice, total n = 4
Procedure, shortened: as §5

TRIM66 (PB) [3] = assay: Histone peptide microarray; assay type: binding, human; details: GST-tagged TRIM66 (PB = PHD + Bromodomain), sheet Array Heatmap, each array performed twice, total n = 4
Procedure, shortened: as §5

MORC3 (CW) = assay: Histone peptide microarray; assay type: binding, human; details: GST-tagged MORC3 (CW = CW-type Zn-finger), sheet Array Heatmap, each array performed twice, total n = 4
Procedure, shortened: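 A peptide microarray holding 293 synthetic histone peptides with individual or combinatorial modifications was probed with each GST-PHD protein at 0.5 μM. Values represent mean intensity (±SD) from four replicates.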

ING1 = assay: Histone peptide microarray; assay type: binding, human; details: GST-tagged ING1, sheet Array Heatmap, each array performed twice, total n = 4
Procedure, shortened: as §5

| Substance | binding (CHD5 (PPCC)) | Array Heatmap signal (histone peptide microarray) (KDM5A (3)) | Array Heatmap signal (histone peptide microarray) (KDM7A) | Array Heatmap signal (histone peptide microarray) (TRIM66 (PB) [3]) | Array Heatmap signal (histone peptide microarray) (MORC3 (CW)) | Array Heatmap signal (histone peptide microarray) (ING1) | binding on domain microarray [2] | also measured |
| --- | --- | --- | --- | --- | --- | --- | --- | --- |
| H3 (1-20): unmodified H3 N-terminal peptide (1–20) | preference for H3K4me0/1 | 0.4935 | 0.3004 | 0.7114 | 0.4267 | 0.542 |  | binding (TRIM66 (PB) [1]; n = 2, listed as H3K4me0): preference for H3K4me0 and me1; also recorded: robust readers of H3K4me0 peptides; number of PHD-containing fusions with positive binding ([2]; of 123 PHD-containing fusions): 31; number of H3-interacting domains with preference for this state [2]: 10 |
| H3K4me1: H3 1-20 [Peptide H3K4me1] | preference for H3K4me0/1 | 0.6222 | 0.37 | 0.6245 | 0.5834 | 0.551 | did not detect H3K4me1 to the same degree | binding (TRIM66 (PB) [1]; n = 2): preference for H3K4me0 and me1 |
| H3K4me2: H3 1-20 [Peptide H3K4me2] |  | 0.6851 | 0.5271 | 0.6781 | 0.6297 | 0.601 | largely recognized equivalently |  |
| H3K4me3: H3 1-20 [Peptide H3K4me3] |  | 0.6781 | 0.3234 | 0.622 | 0.5878 | 0.6386 | largely recognized equivalently | number of H3-interacting domains with preference for this state [2]: 18 |
| H3K9ac: H3 1-20 [Peptide H3K9ac] |  |  |  |  |  |  |  | Array Heatmap signal (histone peptide microarray) (KDM5A (3); listed as 2): 0.6003; Array Heatmap signal (histone peptide microarray) (KDM5A (3); listed as 3): 0.6283; Array Heatmap signal (histone peptide microarray) (KDM7A; listed as 2): 0.303; Array Heatmap signal (histone peptide microarray) (KDM7A; listed as 3): 0.3051; Array Heatmap signal (histone peptide microarray) (TRIM66 (PB) [3]; listed as 2): 0.8314; Array Heatmap signal (histone peptide microarray) (TRIM66 (PB) [3]; listed as 3): 0.731; Array Heatmap signal (histone peptide microarray) (MORC3 (CW); listed as 2): 0.5166; Array Heatmap signal (histone peptide microarray) (MORC3 (CW); listed as 3): 0.5177; Array Heatmap signal (histone peptide microarray) (ING1; listed as 2): 0.5257; Array Heatmap signal (histone peptide microarray) (ING1; listed as 3): 0.5645 |
| H3K9me3: H3 1-20 [Peptide H3K9me3] | ability to bind to the peptides containing H3K9me3 | 0.563 | 0.3458 | 0.7052 | 0.4553 | 0.5591 |  | binding (TRIM66 (PB) [1]; n = 2): ability to bind to the peptides containing H3K9me3 |
| H3S10p: H3 1-20 [Peptide H3S10p] |  | 0.4717 | 0.4084 | 0.7641 | 0.4872 | 0.5325 |  |  |
